Assay results reported in the NIST ThermoML archive (doi:10.1021/acs.jced.6b00985).
Numbers after ± are expanded uncertainties.

Legend:
[1] = refractive index (Na D-line) (dimensionless); conditions: 293.15 K; 101.33 kPa; Liquid; Standard Abbe refractometry
[2] = 293.15 K; 101.33 kPa; Liquid; Vibrating tube method

SMILES | refractive index [1] | mass density [2]
C1CCCC1 [cyclopentane] | 1.4066 ± 0.0011 | 745.7 ± 8 kg/m3
OC1CCCC1 [cyclopentanol] | 1.4531 ± 0.0011 | 948.7 ± 8 kg/m3

More lines, now with the values ahead:

refractive index [1] | mass density [2] | SMILES
1.4151 ± 0.0011 | 819.9 ± 8 kg/m3 | CCCCCCC(C)=O [2-octanone]
1.4452 ± 0.0012 | 990.1 ± 8.2 kg/m3 | CCCCOC(=O)/C=C\C(=O)OCCCC [dibutyl cis-butendioate]
1.3809 ± 0.0011 | 988 ± 8 kg/m3 | CCC(=O)O [propanoic acid]
